Source: patent US12421205B2, “GLP-1 receptor agonist” (HYUNDAI PHARM CO., LTD., priority 2019, dated 2025)

What was measured:
human GLP-1 receptor = biological target: T1, human GLP-1 receptor (Homo sapiens, UniProt P43220); assay: cAMP activity test (cAMP dynamic HTRF kit) in CHO-K1/GLP-1 receptor-expressing cells; type: cell-based; conditions: cAMP activity, CHO-K1/GLP-1 receptor-expressing cells; read-out: EC50
T1 construct: host or cells: CHO-K1
Method: The next day, the medium was removed, and a 50 uL of HBSS medium containing 0.1% BSA, 0.5 mM IBMX, and 5 mM HEPES was added to each well. […] The cAMP activity was measured according to the manufacturer's instructions using the cAMP dynamic HTRF kit (Cisbio, 62AM4PEC). After incubation, the medium was discarded, and the cells were lysed. cAMP-d2 and anti-cAMP cryptate conjugate were added thereto and reacted for 3 hours. […] Intracellular cAMP competes with cAMP-d2 for anti-cAMP cryptate, and the measured signal of fluorescence resonance energy transfer (FRET) is inversely proportional to intracellular cAMP.

hERG = biological target: T2, hERG (Homo sapiens, UniProt Q12809); assay: hERG inhibition test (Predictor hERG Fluorescence Polarization assay kit); type: binding; conditions: probe kit Tracer (fluorescent hERG ligand), hERG % inhibition at 10 uM, relative to E-4031 and solvent control
T2 construct: purchased Invitrogen PV5365
Method: To measure the hERG (Human ether-a-go-go-related gene) channel inhibition rate of the compound according to the present invention, the following test was performed using a Predictor hERG Fluorescence Polarization assay kit (Invitrogen, PV5365).
Specifically, a test substance was dissolved in DMSO to prepare a 50 mM solution. A 4 mM solution was prepared by diluting the 50 mM solution with DMSO in a U bottom 96-well plate (SPL, 34096), and was then diluted 100-fold with a test buffer to prepare a 40 uM (4×) solution. The positive control E-4031 (3 mM) provided in the kit was diluted 25-fold with a test buffer to prepare a 120 uM solution) 5 uL of the diluted test substance solution was dispensed into a 384-well assay plate (corning, 3677). hERG Membrane (2×) and Tracer (4×) provided in the kit were respectively added at 10 uL and 5 uL, and then subjected to the reaction at room temperature for 2.5 hours. After completion of the reaction, fluorescence polarization (mP) was measured with a Multimode Plate Reader (Perkin-Elmer, Envision) (excitation wavelength of 531 nm, and emission wavelength 579 nm). The value of the percent inhibitory activity (% inhibition) at 10 uM of each test substance was calculated by the following equation, and the results are shown in Table 2: (% inhibition)=100−{(mP of the compound according to the present invention−E-4031 mP)/(mP of the solvent control−E-4031 mP)}×100

T2 sequence (Q12809 whole entry): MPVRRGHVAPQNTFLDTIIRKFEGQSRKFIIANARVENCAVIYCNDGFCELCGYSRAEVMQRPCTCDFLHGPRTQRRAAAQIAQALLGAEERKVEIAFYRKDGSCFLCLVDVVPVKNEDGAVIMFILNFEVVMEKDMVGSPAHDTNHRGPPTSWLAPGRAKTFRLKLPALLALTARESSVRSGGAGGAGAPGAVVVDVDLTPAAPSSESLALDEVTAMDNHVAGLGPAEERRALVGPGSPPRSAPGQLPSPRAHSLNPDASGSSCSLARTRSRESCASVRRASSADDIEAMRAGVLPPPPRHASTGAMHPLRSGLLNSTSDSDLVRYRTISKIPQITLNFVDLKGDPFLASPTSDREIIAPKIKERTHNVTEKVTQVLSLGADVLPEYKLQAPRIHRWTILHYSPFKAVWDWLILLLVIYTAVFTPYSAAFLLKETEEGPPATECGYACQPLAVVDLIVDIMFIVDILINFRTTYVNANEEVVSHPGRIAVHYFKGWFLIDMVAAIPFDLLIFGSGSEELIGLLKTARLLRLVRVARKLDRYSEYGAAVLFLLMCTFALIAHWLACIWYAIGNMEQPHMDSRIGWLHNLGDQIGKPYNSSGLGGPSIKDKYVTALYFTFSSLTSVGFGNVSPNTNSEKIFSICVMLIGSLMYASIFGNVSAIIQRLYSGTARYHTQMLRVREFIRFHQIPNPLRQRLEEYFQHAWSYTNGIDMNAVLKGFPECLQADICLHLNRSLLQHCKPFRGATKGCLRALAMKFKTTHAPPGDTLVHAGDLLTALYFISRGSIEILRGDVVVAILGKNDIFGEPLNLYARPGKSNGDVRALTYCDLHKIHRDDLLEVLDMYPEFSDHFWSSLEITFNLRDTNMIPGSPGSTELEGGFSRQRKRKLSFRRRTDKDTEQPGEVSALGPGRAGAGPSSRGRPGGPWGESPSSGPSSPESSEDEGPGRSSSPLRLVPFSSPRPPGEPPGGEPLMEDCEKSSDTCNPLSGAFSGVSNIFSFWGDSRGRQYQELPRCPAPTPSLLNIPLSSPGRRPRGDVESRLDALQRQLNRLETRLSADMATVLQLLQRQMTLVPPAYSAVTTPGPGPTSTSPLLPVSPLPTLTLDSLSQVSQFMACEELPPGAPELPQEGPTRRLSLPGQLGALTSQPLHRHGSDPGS
T1 sequence (P43220 24-463): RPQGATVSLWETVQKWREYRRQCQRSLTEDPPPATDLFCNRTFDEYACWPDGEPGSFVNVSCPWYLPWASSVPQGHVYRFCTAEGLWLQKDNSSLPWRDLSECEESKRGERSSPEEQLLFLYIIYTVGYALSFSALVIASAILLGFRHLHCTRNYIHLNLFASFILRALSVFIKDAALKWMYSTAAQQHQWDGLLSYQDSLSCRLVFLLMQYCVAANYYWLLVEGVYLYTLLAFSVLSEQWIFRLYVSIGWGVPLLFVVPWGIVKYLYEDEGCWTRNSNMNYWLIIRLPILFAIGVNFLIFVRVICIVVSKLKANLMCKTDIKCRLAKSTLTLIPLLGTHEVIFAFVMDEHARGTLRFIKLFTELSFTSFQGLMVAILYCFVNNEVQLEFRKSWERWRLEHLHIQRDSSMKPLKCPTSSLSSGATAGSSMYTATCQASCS

| EC50 (human GLP-1 receptor) [nM] | Structure (SMILES) | inhibition at 2.5 h, 10 µM (hERG) [%] |
| --- | --- | --- |
| 230 | N#Cc1ccc(COc2cccc(-c3ccc(Cc4nc5ccc(C(=O)O)cc5n4CCF)c(F)c3)n2)c(F)c1 [Example 44, 2-(4-(6-(4-cyano-2-fluorobenzyloxy)pyridin-2-yl)-2-fluorobenzyl)-1-(2-fluoroethyl)-1H-benzo[d]imidazole-6-carboxylic acid] | 1.77 |
| 1300 | N#Cc1ccc(COc2cccc(-c3ccc(Cc4nc5ccc(C(=O)O)cc5n4C[C@H]4CCCO4)cc3F)c2)c(F)c1 [Example 47, (R)-2-((3′-(4-cyano-2-fluorobenzyloxy)-2-fluorobiphenyl-4-yl)methyl)-1-((tetrahydrofuran-2-yl)methyl)-1H-benzo[d]imidazole-6-carboxylic acid] | -17.1 |
| 42 | COCCn1c(Cc2c(F)cc(-c3cccc(OCc4ccc(Cl)cc4F)c3)cc2F)nc2ccc(C(=O)O)cc21 [Example 48, 2-((3′-(4-chloro-2-fluorobenzyloxy)-3,5-difluorobiphenyl-4-yl)methyl)-1-(2-methoxyethyl)-1H-benzo[d]imidazole-6-carboxylic acid] | 14.3 |
| 14 | O=C(O)c1ccc2nc(Cc3ccc(-c4cccc(OCc5ccc(Cl)cc5F)n4)cc3F)n(Cc3cccs3)c2c1 [Example 49, 2-(4-(6-(4-chloro-2-fluorobenzyloxy)pyridin-2-yl)-2-fluorobenzyl)-1-(thiophen-2-ylmethyl)-1H-benzo[d]imidazole-6-carboxylic acid] | 12.5 |
| 110 | O=C(O)c1ccc2nc(Cc3ccc(-c4cccc(OCc5ccc(Cl)cc5F)n4)c(F)c3)n(C[C@H]3CCCO3)c2c1 [Example 52, (R)-2-(4-(6-(4-chloro-2-fluorobenzyloxy)pyridin-2-yl)-3-fluorobenzyl)-1-((tetrahydrofuran-2-yl)methyl)-1H-benzo[d]imidazole-6-carboxylic acid] | 24.2 |
| 210 | O=C(O)c1ccc2nc(Cc3ccc(-c4cccc(OCc5ccc(Cl)cc5F)n4)c(F)c3)n(CCF)c2c1 [Example 55, 2-(4-(6-(4-chloro-2-fluorobenzyloxy)pyridin-2-yl)-3-fluorobenzyl)-1-(2-fluoroethyl)-1H-benzo[d]imidazole-6-carboxylic acid] | 35.4 |
| 5.8 | O=C(O)c1ccc2nc(Cc3ccc(-c4cccc(OCc5ccc(Cl)cc5F)n4)cc3F)n(C[C@@H]3CCCO3)c2c1 [Example 59, (S)-2-(4-(6-(4-chloro-2-fluorobenzyloxy)pyridin-2-yl)-2-fluorobenzyl)-1-((tetrahydrofuran-2-yl)methyl)-1H-benzo[d]imidazole-6-carboxylic acid] | -21 |
| 8.7 | O=C(O)c1ccc2nc(Cc3ccc(-c4cccc(OCc5ccc(Cl)cc5F)n4)c(F)c3F)n(CC3CCCO3)c2c1 (centres unmarked) [Example 61, 2-(4-(6-(4-chloro-2-fluorobenzyloxy)pyridin-2-yl)-2,3-difluorobenzyl)-1-((tetrahydrofuran-2-yl)methyl)-1H-benzo[d]imidazole-6-carboxylic acid] | -6.72 |
| 160 | COc1cc(-c2cccc(OCc3ccc(Cl)cc3F)n2)ccc1Cc1nc2ccc(C(=O)O)cc2n1CC1CCCO1 (centres unmarked) [Example 63, 2-(4-(6-(4-chloro-2-fluorobenzyloxy)pyridin-2-yl)-2-methoxybenzyl)-1-((tetrahydrofuran-2-yl)methyl)-1H-benzo[d]imidazole-6-carboxylic acid] | -19.6 |
| 5 | O=C(O)c1ccc2nc(Cc3c(F)cc(-c4cccc(OCc5ccc(Cl)cc5F)n4)cc3F)n(CC3CCCO3)c2c1 (centres unmarked) [Example 65, 2-(4-(6-(4-chloro-2-fluorobenzyloxy)pyridin-2-yl)-2,6-difluorobenzyl)-1-((tetrahydrofuran-2-yl)methyl)-1H-benzo[d]imidazole-6-carboxylic acid] | 10.8 |

Continued, compound first:

| Structure (SMILES) | EC50 (human GLP-1 receptor) [nM] | inhibition at 2.5 h, 10 µM (hERG) [%] |
| --- | --- | --- |
| O=C(O)c1ccc2nc(Cc3ccc(-c4cccc(COc5ccc(Cl)cc5F)n4)cc3F)n(C[C@H]3CCCO3)c2c1 [Example 45, (R)-2-(4-(6-((4-chloro-2-fluorophenoxy)methyl)pyridin-2-yl)-2-fluorobenzyl)-1-((tetrahydrofuran-2-yl)methyl)-1H-benzo[d]imidazole-6-carboxylic acid] | 3700 | 27.7 |
| N#Cc1ccc(COc2cccc(-c3ccc(Cc4nc5ccc(C(=O)O)cc5n4C[C@H]4CCCO4)c(F)c3)c2)c(F)c1 [Example 46, (R)-2-((3′-(4-cyano-2-fluorobenzyloxy)-3-fluorobiphenyl-4-yl)methyl)-1-((tetrahydrofuran-2-yl)methyl)-1H-benzo[d]imidazole-6-carboxylic acid] | 260 | 1.04 |
| O=C(O)c1ccc2nc(Cc3ccc(-c4cccc(OCc5ccc(Cl)cc5F)n4)c(F)c3)n(Cc3cccs3)c2c1 [Example 50, 2-(4-(6-(4-chloro-2-fluorobenzyloxy)pyridin-2-yl)-3-fluorobenzyl)-1-(thiophen-2-ylmethyl)-1H-benzo[d]imidazole-6-carboxylic acid] | 15 | 4.72 |
| O=C(O)c1ccc2nc(Cc3ccc(-c4cccc(OCc5ccc(Cl)cc5F)n4)cc3F)n(C[C@H]3CCCO3)c2c1 [Example 51, (R)-2-(4-(6-(4-chloro-2-fluorobenzyloxy)pyridin-2-yl)-2-fluorobenzyl)-1-((tetrahydrofuran-2-yl)methyl)-1H-benzo[d]imidazole-6-carboxylic acid] | 52 | -4.69 |
| COCCn1c(Cc2ccc(-c3cccc(OCc4ccc(Cl)cc4F)n3)cc2C)nc2ccc(C(=O)O)cc21 [Example 53, 2-(4-(6-(4-chloro-2-fluorobenzyloxy)pyridin-2-yl)-2-methylbenzyl)-1-(2-methoxyethyl)-1H-benzo[d]imidazole-6-carboxylic acid] | 39 | 18.7 |
| COCCn1c(Cc2ccc(-c3cccc(OCc4ccc(C#N)cc4F)n3)cc2C)nc2ccc(C(=O)O)cc21 [Example 54, 2-(4-(6-(4-cyano-2-fluorobenzyloxy)pyridin-2-yl)-2-methylbenzyl)-1-(2-methoxyethyl)-1H-benzo[d]imidazole-6-carboxylic acid] | 110 | 36.5 |
| O=C(O)c1ccc2nc(Cc3ccc(-c4cccc(OCc5ccc(Cl)cc5F)c4)cc3F)n(CCF)c2c1 [Example 56, 2-((3′-(4-chloro-2-fluorobenzyloxy)-3-fluorobiphenyl-4-yl)methyl)-1-(2-fluoroethyl)-1H-benzo[d]imidazole-6-carboxylic acid] | 800 | 0.83 |
| N#Cc1ccc(COc2cccc(-c3ccc(Cc4nc5ccc(C(=O)O)cc5n4CCF)c(F)c3)c2)c(F)c1 [Example 57, 2-((3′-(4-cyano-2-fluorobenzyloxy)-3-fluorobiphenyl-4-yl)methyl)-1-(2-fluoroethyl)-1H-benzo[d]imidazole-6-carboxylic acid] | 850 | 6.42 |
| N#Cc1ccc(COc2cccc(-c3ccc(Cc4nc5ccc(C(=O)O)cc5n4CCF)cc3F)n2)c(F)c1 [Example 58, 2-(4-(6-(4-cyano-2-fluorobenzyloxy)pyridin-2-yl)-3-fluorobenzyl)-1-(2-fluoroethyl)-1H-benzo[d]imidazole-6-carboxylic acid] | 170 | 2.81 |
| O=C(O)c1ccc2nc(Cc3ccc(-c4cccc(OCc5ccc(Cl)cc5F)n4)c(F)c3)n(C[C@@H]3CCCO3)c2c1 [Example 60, (S)-2-(4-(6-((4-chloro-2-fluorobenzyl)oxy)pyridin-2-yl)-3-fluorobenzyl)-1-((tetrahydrofuran-2-yl)methyl)-1H-benzo[d]imidazole-6-carboxylic acid] | < 3.2 | -5.42 |
| N#Cc1ccc(COc2cccc(-c3ccc(Cc4nc5ccc(C(=O)O)cc5n4CC4CCCO4)c(F)c3F)n2)c(F)c1 (centres unmarked) [Example 62, 2-(4-(6-(4-cyano-2-fluorobenzyloxy)pyridin-2-yl)-2,3-difluorobenzyl)-1-((tetrahydrofuran-2-yl)methyl)-1H-benzo[d]imidazole-6-carboxylic acid] | 37 | -7.49 |
| COc1cc(-c2cccc(OCc3ccc(C#N)cc3F)n2)ccc1Cc1nc2ccc(C(=O)O)cc2n1CC1CCCO1 (centres unmarked) [Example 64, 2-(4-(6-(4-cyano-2-fluorobenzyloxy)pyridin-2-yl)-2-methoxybenzyl)-1-((tetrahydrofuran-2-yl)methyl)-1H-benzo[d]imidazole-6-carboxylic acid] | 110 | -9.05 |
